Data: article PMC3020970, “K70Q Adds High-Level Tenofovir Resistance to “Q151M Complex” HIV Reverse Transcriptase through the Enhanced Discrimination Mechanism” (PLoS ONE, 2011)
Where “and” joins values, the source holds several entries; their conditions need not be identical. Identical values can stand only once. Like-named read-outs stand apart in the source and are kept apart here.

What was measured:
[1] = target: T1, HIV-1 RT K70Q (Human immunodeficiency virus type 1 group M subtype B, UniProt P03366, K669Q); experiment: Primer extension assay; type: biochemical
T1 construct: made in house; host or cells: Escherichia coli BL21
Protocol: RT sequences coding for the p66 and p51 subunits of BH10 were cloned in the pRT dual vector, which is derived from pCDF-2 with LIC duet minimal adaptor (Novagen), using restriction sites PpuMI and SacI for the p51 subunit, and SacII and AvrII for the p66 subunit. RT was expressed in the Escherichia coli strain BL21 (Invitrogen) and purified by nickel affinity chromatography and MonoQ anion exchange chromatography. RT concentrations were determined spectrophotometrically based on absorption at […] using a calculated extinction coefficient (261,610 M^−1 cm^−1). The active site concentration of the various RT preparations was calculated as described below.
DNA oligomers were synthesized by Integrated DNA Technologies (Coralville, IA). An 18-nucleotide DNA primer fluorescently labeled with Cy3 at the 5′ end (P18; 5′-Cy3 GTC CCT GTT CGG GCG CCA-3′) and a 100-nucleotide DNA template (T100; 5′-TAGTGTGTGCCCGTCTGTTGTGTGACTCTGGTAACTAGAGATCCCTCAGACCCTTTTAGTCAGTGTGGAAAATCTCTAGCAGTGGCGCCCGAACAGGGAC-3′) were used in primer extension assays. An 18-nucleotide DNA primer 5′-labeled with Cy3 (P18; 5′-Cy3 GTC ACT GTT CGA GCA CCA-3′) and a 31-nucleotide DNA template (T31; 5′- CCATAGCTAGCATTGGTGCTCGAACAGTGAC-3′) were used in the ATP rescue assay and pre-steady state kinetic experiments.
The enzyme (20 nM active sites) was incubated with 20 nM template/primer at 37°C in a buffer containing 50 mM Tris-HCl, pH 7.8 and 50 mM NaCl. The DNA synthesis was initiated by the addition of 1 µM dNTP and 10 mM MgCl2. The primer extension assays were carried out in the presence or absence of varying concentrations of TFV-DP. The reactions were terminated after 15 min by adding equal volume of 100% formamide containing traces of bromophenol blue. The extension products were resolved on a 7 M urea-15% polyacrylamide gel, and visualized by phosphor-imaging (FLA 5100, Fujifilm, Tokyo). We followed standard protocols that utilize the Multi Gauge software (Fujifilm) to quantitate primer extension, [44]. The results from dose response experiments were plotted using Prism 4 (GraphPad Software Inc., CA) and IC50 values for TFV-DP were obtained at midpoint concentrations.

[2] = target: T1, HIV-1 RT K70Q; experiment: Pre-steady state kinetics of binding and incorporation; type: biochemical
Protocol: The reactions were quenched at various times (10 ms to 5 s) by adding EDTA to a final concentration of 50 mM. The amounts of product (P18-dAMP) were quantitated and fit to the following burst equation: [drawing 1] (1) where A is the amplitude of the burst phase that represents the RT-DNA complex at the start of the reaction, k obs is the observed burst rate constant for dNTP incorporation, k ss is the steady state rate constant, and t is the reaction time. The rate constant of the linear phase (kcat) can be estimated by dividing the slope of the linear phase by the enzyme concentration. The active site concentration and template/primer binding affinity (KD-DNA) were determined by plotting the amplitude (A) against the concentration of template/primer. The data were fit using non-linear regression to a quadratic equation: [drawing 2] (2) where KD is the dissociation constant for the RT-DNA complex, and [RT] is the concentration of active polymerase molecules. Subsequent biochemical experiments were performed using corrected active site concentrations, [43].
HIV-1 RT (50 nM active sites) was pre-incubated with 50 nM T31/P18 in one syringe (Syringe A), whereas varying concentrations of dNTP and 10 mM MgCl2 were kept in another syringe (Syringe B). The solutions were rapidly mixed to initiate reactions, which were subsequently quenched at various times (5 ms to 10 s) by adding EDTA to a final concentration of 50 mM. The products from each quenched reaction were resolved, quantitated, and plotted as described above. The data were fit by non-linear regression to the burst equation (Eq 1).
To obtain the dissociation constant KD-dNTP for dNTP binding to the RT-DNA complex, the observed burst rates (kobs) were fit to the hyperbolic equation (Eq. 3) using nonlinear regression: [drawing 3] (3) where kpol is the optimal rate of dNTP incorporation.

CC(Cn1cnc2c(N)ncnc21)OCP(=O)(O)OP(=O)(O)OP(=O)(O)O (stereo in doubt) [TFV-DP, tenofovir-diphosphate]
Excision enhancement due to ATP (IC50 with ATP/IC50 without ATP) [1]: 2.9 fold | IC50 ([1]; with 3.5 mM ATP, read-out: IC50 of TFV-DP, with ATP): 2310 ± 270 nM | Fold increase in IC50 vs WT RT, with ATP ([1]; with ATP): (1.2) fold | Fold increase in IC50 vs WT RT, without ATP ([1]; without ATP): (1.3) fold | IC50 ([1]; without ATP, read-out: IC50 of TFV-DP, without ATP): 802 ± 99 nM | Selectivity (k pol/Kd)dATP/(k pol/Kd)TFV-DP ([2]; K70Q RT): 6.1 | k pol/Kd ([2]; K70Q RT): 0.36 µM⁻¹ s⁻¹ and 0.36 ± 0.08 µM⁻¹ s⁻¹ | Reduced affinity for TFV than the WT enzyme ([2]; K70Q RT vs WT RT): more than 4.5 fold | k pol ([2]; K70Q RT, T31/P18, 37°C): 3.1 s⁻¹ and 3.1 ± 0.4 s⁻¹ | Kd ([2]; K70Q RT, binding to RT-DNA complex): 8.6 ± 1.5 µM
